In PubChem BioAssay AID1963983 (Molecular Pharmacology Branch, DTP, NCI, 2024):

Tested on: 186277-243-T-J2-PDC multi-cell spheroid viability
Assay: Anticancer human tumor 186277-243-T-J2-PDC patient-derived colon adenocarcinoma cell line growth inhibition [PI3K]
Details: for IC50: curve of first compound; for viability, T/C: stronger effect = lower value; active = viability on the fitted dose curve at most 10% of control; inactive = the rest
Method in brief: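 Targeted small molecules plus PI3K inhibitors, half-log dose series from Cmax (default top 10 microM), were applied to heterotypic spheroids of cancer cells with HUVEC and MSCs. Viability indicated growth inhibition.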

[1] = second compound 0.0316 µM, first compound 0.0316 µM
[2] = second compound 0.0316 µM, first compound 0.1 µM
[3] = second compound 0.1 µM, first compound 0.0316 µM
[4] = second compound 0.1 µM, first compound 0.1 µM
[5] = second compound 0.316 µM, first compound 0.0316 µM
[6] = second compound 0.316 µM, first compound 0.1 µM
[7] = second compound 1 µM, first compound 0.0316 µM
[8] = second compound 1 µM, first compound 0.1 µM
[9] = second compound 3.16 µM, first compound 0.0316 µM
[10] = second compound 3.16 µM, first compound 0.1 µM
[11] = second compound 10 µM, first compound 0.0316 µM
[12] = second compound 10 µM, first compound 0.1 µM
[13] = second compound 0.0316 µM, first compound 0.000316 µM
[14] = second compound 0.0316 µM, first compound 0.001 µM
[15] = second compound 0.0316 µM, first compound 0.00316 µM
[16] = second compound 0.0316 µM, first compound 0.01 µM
[17] = second compound 0.1 µM, first compound 0.000316 µM
[18] = second compound 0.1 µM, first compound 0.001 µM
[19] = second compound 0.1 µM, first compound 0.00316 µM
[20] = second compound 0.1 µM, first compound 0.01 µM
[21] = second compound 0.316 µM, first compound 0.000316 µM
[22] = second compound 0.316 µM, first compound 0.001 µM
[23] = second compound 0.316 µM, first compound 0.00316 µM
[24] = second compound 0.316 µM, first compound 0.01 µM
[25] = second compound 1 µM, first compound 0.000316 µM
[26] = second compound 1 µM, first compound 0.001 µM
[27] = second compound 1 µM, first compound 0.00316 µM
[28] = second compound 1 µM, first compound 0.01 µM
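Also: spheroids exposed to compounds for seven days before viability reading.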
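For viability, T/C in this document: 100% = DMSO vehicle control viability.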

C=CC(=O)N1CCN(c2nc(=O)n(-c3c(C)ccnc3C(C)C)c3nc(-c4c(O)cccc4F)c(F)cc23)C(C)C1 (stereo unspecified) + CC(Nc1ncnc2nc[nH]c12)c1cc2cccc(Cl)c2c(=O)n1-c1ccccc1
> 10000 nM: IC50 (second compound 0.0316 µM) | IC50 (second compound 0.1 µM) | IC50 (second compound 0.316 µM) | IC50 (second compound 1 µM) | IC50 (second compound 3.16 µM) | IC50 (second compound 10 µM)
inactive: viability, T/C [1] 100% | viability, T/C [2] 95.4% | viability, T/C (second compound 0.0316 µM, first compound 0.316 µM) 91.8% | viability, T/C (second compound 0.0316 µM, first compound 1 µM) 90.9% | viability, T/C (second compound 0.0316 µM, first compound 3.16 µM) 99.7% | viability, T/C (second compound 0.0316 µM, first compound 10 µM) 90.4% | viability, T/C [3] 99% | viability, T/C [4] 90.1% | viability, T/C (second compound 0.1 µM, first compound 0.316 µM) 96.2% | viability, T/C (second compound 0.1 µM, first compound 1 µM) 93.7% | viability, T/C (second compound 0.1 µM, first compound 3.16 µM) 100% | viability, T/C (second compound 0.1 µM, first compound 10 µM) 107% | viability, T/C [5] 95.6% | viability, T/C [6] 87.4% | viability, T/C (second compound 0.316 µM, first compound 0.316 µM) 90% | viability, T/C (second compound 0.316 µM, first compound 1 µM) 92.2% | viability, T/C (second compound 0.316 µM, first compound 3.16 µM) 119% | viability, T/C (second compound 0.316 µM, first compound 10 µM) 88.8% | viability, T/C [7] 96.1% | viability, T/C [8] 110% | viability, T/C (second compound 1 µM, first compound 0.316 µM) 116% | viability, T/C (second compound 1 µM, first compound 1 µM) 101% | viability, T/C (second compound 1 µM, first compound 3.16 µM) 112% | viability, T/C (second compound 1 µM, first compound 10 µM) 95% | viability, T/C [9] 101% | viability, T/C [10] 91.1% | viability, T/C (second compound 3.16 µM, first compound 0.316 µM) 106% | viability, T/C (second compound 3.16 µM, first compound 1 µM) 101% | viability, T/C (second compound 3.16 µM, first compound 3.16 µM) 107% | viability, T/C (second compound 3.16 µM, first compound 10 µM) 92.3% | viability, T/C [11] 93.9% | viability, T/C [12] 89% | viability, T/C (second compound 10 µM, first compound 0.316 µM) 93.6% | viability, T/C (second compound 10 µM, first compound 1 µM) 76.3% | viability, T/C (second compound 10 µM, first compound 3.16 µM) 87.5% | viability, T/C (second compound 10 µM, first compound 10 µM) 72.7%

CC(C)n1nc(-c2ccc3oc(N)nc3c2)c2c(N)ncnc21 + COc1c(OCCCN2CCOCC2)ccc2c3n(c(=NC(=O)c4cnc(N)nc4)nc12)CCN3
5.38 nM: IC50 (second compound 0.0316 µM)
42.2 nM: IC50 (second compound 0.01 µM)
49.7 nM: IC50 (second compound 0.00316 µM)
active: viability, T/C [2] 6.6% | viability, T/C [3] 8.21% | viability, T/C [4] 3.59% | viability, T/C [21] 4.14% | viability, T/C [22] 7.06% | viability, T/C [23] 4.26% | viability, T/C [24] 4.69% | viability, T/C [5] 2.78% | viability, T/C [6] 2.4% | viability, T/C [25] 3.07% | viability, T/C [26] 1.73% | viability, T/C [27] 3% | viability, T/C [28] 1.5% | viability, T/C [7] 3.24% | viability, T/C [8] 1.04%
inactive: viability, T/C (second compound 0.00316 µM, first compound 0.000316 µM) 108% | viability, T/C (second compound 0.00316 µM, first compound 0.001 µM) 81.1% | viability, T/C (second compound 0.00316 µM, first compound 0.00316 µM) 97.7% | viability, T/C (second compound 0.00316 µM, first compound 0.01 µM) 82.9% | viability, T/C (second compound 0.00316 µM, first compound 0.0316 µM) 70.8% | viability, T/C (second compound 0.00316 µM, first compound 0.1 µM) 21.2% | viability, T/C (second compound 0.01 µM, first compound 0.000316 µM) 97.5% | viability, T/C (second compound 0.01 µM, first compound 0.001 µM) 103% | viability, T/C (second compound 0.01 µM, first compound 0.00316 µM) 86.5% | viability, T/C (second compound 0.01 µM, first compound 0.01 µM) 89.8% | viability, T/C (second compound 0.01 µM, first compound 0.0316 µM) 61% | viability, T/C (second compound 0.01 µM, first compound 0.1 µM) 14.7% | viability, T/C [13] 74.2% | viability, T/C [14] 70.6% | viability, T/C [15] 59.5% | viability, T/C [16] 39% | viability, T/C [1] 17.1% | viability, T/C [17] 17% | viability, T/C [18] 17.5% | viability, T/C [19] 14.3% | viability, T/C [20] 9.3%
< 0.316 nM: IC50 (second compound 0.1 µM) | IC50 (second compound 0.316 µM) | IC50 (second compound 1 µM)

CC(=O)c1c(C)c2cnc(Nc3ccc(N4CCNCC4)cn3)nc2n(C2CCCC2)c1=O + Cc1nc(NC(=O)N2CCCC2C(N)=O)sc1-c1ccnc(C(C)(C)C(F)(F)F)c1
inactive: viability, T/C [13] 96.5% | viability, T/C [14] 95% | viability, T/C [15] 96% | viability, T/C [16] 114% | viability, T/C [1] 123% | viability, T/C [2] 138% | viability, T/C [17] 97.7% | viability, T/C [18] 106% | viability, T/C [19] 104% | viability, T/C [20] 109% | viability, T/C [3] 136% | viability, T/C [4] 135% | viability, T/C [21] 101% | viability, T/C [22] 113% | viability, T/C [23] 109% | viability, T/C [24] 101% | viability, T/C [5] 124% | viability, T/C [6] 126% | viability, T/C [25] 104% | viability, T/C [26] 102% | viability, T/C [27] 99.5% | viability, T/C [28] 107% | viability, T/C [7] 94.3% | viability, T/C [8] 83.6% | viability, T/C (second compound 3.16 µM, first compound 0.000316 µM) 58.7% | viability, T/C (second compound 3.16 µM, first compound 0.001 µM) 53.6% | viability, T/C (second compound 3.16 µM, first compound 0.00316 µM) 59.2% | viability, T/C (second compound 3.16 µM, first compound 0.01 µM) 53.3% | viability, T/C [9] 46.1% | viability, T/C [10] 37.4% | viability, T/C (second compound 10 µM, first compound 0.000316 µM) 20.9% | viability, T/C (second compound 10 µM, first compound 0.001 µM) 12.4% | viability, T/C (second compound 10 µM, first compound 0.00316 µM) 13.7% | viability, T/C (second compound 10 µM, first compound 0.01 µM) 11.6% | viability, T/C [11] 15.4% | viability, T/C [12] 10.5%
< 0.316 nM: IC50 (second compound 10 µM)
19 nM: IC50 (second compound 3.16 µM)
> 100 nM: IC50 (second compound 0.0316 µM) | IC50 (second compound 0.1 µM) | IC50 (second compound 0.316 µM) | IC50 (second compound 1 µM)
